The values below are quoted from earlier work in US12661351B2, “Stable liquid compositions of posaconazole” (INVENGENE PRIVATE LIMITED, priority 2020, dated 2026).

Like-named read-outs stand apart in the source and are kept apart here.

Regarding `CC[C@@H]([C@H](C)O)n1ncn(-c2ccc(N3CCN(c4ccc(OC[C@@H]5CO[C@@](Cn6cncn6)(c6ccc(F)cc6F)C5)cc4)CC3)cc2)c1=O` [Posaconazole], the Solubility result is, setting by setting: (aqueous solutions at pH>4) “less than 1 mcg/ml”; (strong acidic (aqueous) solutions of pH 1 or lower) “about 790 mcg/ml”.
